According to publication PMC2229574 (The Journal of General Physiology, 2003):
pKd: −log10 of the molar value. Values joined by “and” are separate entries in the source; they are usually repeats but may differ in a detail not shown here. Equal entries are not always repeated. Where two headings read alike, the source gives them in different places.

Tests used:
mouse AChR αD97G = mouse AChR αD97G (Mus musculus, UniProt P02716+P04756+P20782, D117G); conditions: for β2 (diliganded channel opening rate constant): 20 mM choline
mouse AChR αD97A = mouse AChR αD97A (Mus musculus, UniProt P02716+P04756+P20782, D117A)
[1] = molecular target: mouse AChR δ-subunit N98V (Mus musculus, UniProt P02716+P04756+P20782, N122V); conditions: 20 mM choline
mouse AChR αD97H [2] = molecular target: T1, mouse AChR αD97H (Mus musculus, UniProt P02716+P04756+P20782, D117H); conditions: for L2: kinetic modeling
[3] = molecular target: mouse AChR ɛ-subunit D97A (Mus musculus, UniProt P02716+P04756+P20782, D117A); conditions: 20 mM choline
mouse AChR αD97E = mouse AChR αD97E (Mus musculus, UniProt P02716+P04756+P20782, D117E); test: cell-based
[4] = molecular target: mouse AChR β-subunit G98V (Mus musculus, UniProt P02716+P04756+P09690+P20782, G121V); conditions: 20 mM choline
mouse AChR αD97M = mouse AChR αD97M (Mus musculus, UniProt P02716+P04756+P20782, D117M)
[5] = test system: hybrid AChR (one wild-type α-subunit and one D97A α-subunit), hybrid 1; conditions: 20 mM choline
mouse AChR αD97C = mouse AChR αD97C (Mus musculus, UniProt P02716+P04756+P20782, D117C)
mouse AChR αD97H [6] = molecular target: T1, mouse AChR αD97H; test: cell-based
mouse AChR αD97Q = mouse AChR αD97Q (Mus musculus, UniProt P02716+P04756+P20782, D117Q)
[7] = molecular target: mouse AChR β-subunit D97V (Mus musculus, UniProt P02716+P04756+P09690+P20782, D120V); conditions: 20 mM choline
[8] = test system: hybrid AChR (one wild-type α-subunit and one D97A α-subunit), hybrid 2; conditions: 20 mM choline
[9] = molecular target: wild-type mouse AChR (α2βδɛ) (Mus musculus, UniProt P02716+P04756+P20782); conditions: wt; for L2: choline (Table III / text)
wild-type mouse AChR (α2βδɛ), sequence (P04756 21-457): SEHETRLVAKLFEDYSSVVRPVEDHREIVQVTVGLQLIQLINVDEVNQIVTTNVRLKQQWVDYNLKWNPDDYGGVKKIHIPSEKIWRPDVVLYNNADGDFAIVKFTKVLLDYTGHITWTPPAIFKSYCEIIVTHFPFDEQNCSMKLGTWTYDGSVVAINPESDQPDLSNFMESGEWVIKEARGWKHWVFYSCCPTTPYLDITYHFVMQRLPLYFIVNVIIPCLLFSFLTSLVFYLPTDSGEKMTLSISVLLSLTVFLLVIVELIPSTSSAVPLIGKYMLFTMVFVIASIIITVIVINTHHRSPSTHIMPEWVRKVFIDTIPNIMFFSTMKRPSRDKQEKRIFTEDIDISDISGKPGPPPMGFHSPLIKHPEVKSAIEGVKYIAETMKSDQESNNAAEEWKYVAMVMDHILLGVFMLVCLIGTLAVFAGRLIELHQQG
wild-type mouse AChR (α2βδɛ), sequence (P09690 24-501 partner): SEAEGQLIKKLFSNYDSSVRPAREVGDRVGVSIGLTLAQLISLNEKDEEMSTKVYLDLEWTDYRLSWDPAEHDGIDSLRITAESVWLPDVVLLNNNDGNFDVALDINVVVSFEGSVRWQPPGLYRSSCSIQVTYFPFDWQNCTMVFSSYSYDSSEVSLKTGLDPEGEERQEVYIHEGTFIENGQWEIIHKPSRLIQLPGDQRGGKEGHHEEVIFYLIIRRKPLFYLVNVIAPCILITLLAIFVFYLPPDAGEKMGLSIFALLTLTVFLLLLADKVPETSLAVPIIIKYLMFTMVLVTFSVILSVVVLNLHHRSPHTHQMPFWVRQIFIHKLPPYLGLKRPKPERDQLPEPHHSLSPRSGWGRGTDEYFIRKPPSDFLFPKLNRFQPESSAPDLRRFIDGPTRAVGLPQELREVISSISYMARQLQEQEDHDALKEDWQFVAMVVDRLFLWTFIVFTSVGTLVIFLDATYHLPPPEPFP
wild-type mouse AChR (α2βδɛ), sequence (P02716 25-520): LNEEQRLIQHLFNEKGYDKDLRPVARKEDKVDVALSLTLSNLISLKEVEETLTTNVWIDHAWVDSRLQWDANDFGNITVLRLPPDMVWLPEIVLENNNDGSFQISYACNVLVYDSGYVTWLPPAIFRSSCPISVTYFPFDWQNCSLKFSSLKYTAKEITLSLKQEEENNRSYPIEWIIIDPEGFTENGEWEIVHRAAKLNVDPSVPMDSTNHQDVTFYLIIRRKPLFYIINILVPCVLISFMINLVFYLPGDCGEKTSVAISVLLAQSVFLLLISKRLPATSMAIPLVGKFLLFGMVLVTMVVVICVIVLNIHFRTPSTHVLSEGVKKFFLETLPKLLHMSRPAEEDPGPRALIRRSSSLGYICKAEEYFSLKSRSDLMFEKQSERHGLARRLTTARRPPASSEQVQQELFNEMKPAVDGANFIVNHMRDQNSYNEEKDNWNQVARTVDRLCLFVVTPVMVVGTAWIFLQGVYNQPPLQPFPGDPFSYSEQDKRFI
wild-type mouse AChR (α2βδɛ), sequence (P20782 21-493): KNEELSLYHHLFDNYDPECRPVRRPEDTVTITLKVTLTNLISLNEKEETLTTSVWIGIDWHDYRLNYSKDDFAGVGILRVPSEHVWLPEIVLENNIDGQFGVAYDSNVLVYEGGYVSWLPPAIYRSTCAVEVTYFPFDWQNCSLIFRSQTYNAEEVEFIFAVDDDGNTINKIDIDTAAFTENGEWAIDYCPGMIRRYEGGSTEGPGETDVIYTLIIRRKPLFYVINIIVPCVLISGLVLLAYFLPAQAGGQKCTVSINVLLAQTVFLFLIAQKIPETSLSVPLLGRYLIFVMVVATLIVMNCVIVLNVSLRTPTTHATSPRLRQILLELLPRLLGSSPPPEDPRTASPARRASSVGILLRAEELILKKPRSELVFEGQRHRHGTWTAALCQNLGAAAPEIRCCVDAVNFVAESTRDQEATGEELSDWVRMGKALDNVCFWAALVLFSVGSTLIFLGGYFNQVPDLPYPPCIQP

mouse AChR αD97P = mouse AChR αD97P (Mus musculus, UniProt P02716+P04756+P20782, D117P); conditions: for α2 (diliganded channel closing rate constant): 0.4 mM choline; for β2 (diliganded channel opening rate constant): 20 mM choline; for L2 (diliganded gating equilibrium constant, β2/α2) / L2-ratio (mut/wt): choline
mouse AChR αD97Y = mouse AChR αD97Y (Mus musculus, UniProt P02716+P04756+P20782, D117Y)
mouse AChR αD97Y, sequence (P04756 21-457 D117Y): as the sequence (P04756 21-457) above, with D97Y counted along it
mouse AChR αD97Y, sequence (P09690 24-501 partner): as the sequence (P09690 24-501 partner) above
mouse AChR αD97Y, sequence (P02716 25-520): as the sequence (P02716 25-520) above
mouse AChR αD97Y, sequence (P20782 21-493, stated change not applied): as the sequence (P20782 21-493) above

[10] = molecular target: mouse AChR ɛ-subunit D97V (Mus musculus, UniProt P02716+P04756+P20782, D117V); conditions: 20 mM choline
[11] = molecular target: mouse AChR β-subunit D97A (Mus musculus, UniProt P02716+P04756+P09690+P20782, D120A); conditions: 20 mM choline
[12] = molecular target: mouse AChR δ-subunit D99V (Mus musculus, UniProt P02716+P04756+P20782, D123V); conditions: 20 mM choline
mouse AChR αD97L = mouse AChR αD97L (Mus musculus, UniProt P02716+P04756+P20782, D117L)
[13] = joint fit choline 1, 2 and 5 mM, Scheme I
[14] = read-out: k+ (association rate constant, single TBS)
[15] = read-out: k− (dissociation rate constant, single TBS)

C[N+](C)(C)CCO [choline]
α2 (diliganded channel closing rate constant) (mouse AChR αD97G; αD97G kinetic mode G1, 0.4 mM choline): 2,105 s^−1
β2 (diliganded channel opening rate constant) (mouse AChR αD97G; αD97G kinetic mode G1): 421 s⁻¹
L2 (diliganded gating equilibrium constant, β2/α2) (mouse AChR αD97G; αD97G kinetic mode G1, choline): 0.200
L2-ratio (mut/wt) (mouse AChR αD97G; αD97G kinetic mode G1, choline): 4.20
β2 (diliganded channel opening rate constant) (mouse AChR αD97G; αD97G kinetic mode G2): 570 s⁻¹
L2 (diliganded gating equilibrium constant, β2/α2) (mouse AChR αD97G; αD97G kinetic mode G2, choline): 0.605
ΔΔG0 for channel gating, 0.59 ln(L2^wt/L2^mut) (mouse AChR αD97A; double αD97A mutant, 20 mM choline): 3.09 kcal mol^−1
α2 (diliganded channel closing rate constant) (mouse AChR αD97A; αD97A, 0.4 mM choline): 1,719 s^−1
β2 (diliganded channel opening rate constant) (mouse AChR αD97A; αD97A, 20 mM choline): 13,793 s^−1
L2 (diliganded gating equilibrium constant, β2/α2) (mouse AChR αD97A; αD97A, choline): 8.023
L2-ratio (mut/wt) (mouse AChR αD97A; αD97A, choline): 168
L2-ratio (mut/wt) (mouse AChR αD97A; αD97A, choline, listed as Choline): 168.50
α2* (apparent channel closing rate constant) [1]: 437 s⁻¹
β2 (channel opening rate constant) [1]: 62 s⁻¹
α2 (diliganded channel closing rate constant) (mouse AChR αD97H [2]; 0.4 mM choline): 1,938 s^−1
β2 (diliganded channel opening rate constant) (mouse AChR αD97H [2]; 20 mM choline): 1,840 s^−1
L2 (diliganded gating equilibrium constant, β2/α2) (mouse AChR αD97H [2]; choline): 0.949
L2-ratio (mut/wt) (mouse AChR αD97H [2]; choline): 19.94
L2 (equilibrium gating constant) from Popen dose–response analysis (mouse AChR αD97H [2]; choline, fit by Eq. 2): 1.1 ± 0.5
L2 (mouse AChR αD97H [2]; choline, Scheme I): 1.2 ± 0.1
L2 (mouse AChR αD97H [2]; choline, Scheme I, listed as Choline): 1.15 ± 0.14
α2 (mouse AChR αD97H [2]; [13]): 2,759 ± 149 s^−1
β2 (mouse AChR αD97H [2]; [13]): 3,189 ± 168 s^−1
α2* (apparent channel closing rate constant) [3]: 645 s⁻¹
β2 (channel opening rate constant) [3]: 64 s⁻¹
pKd (mouse AChR αD97E; Kd (k−/k+), αD97E, choline, kinetic modeling, Scheme I): 2.68 and 2.67
kon (mouse AChR αD97E; [14]): 2.84e+06 M⁻¹ s⁻¹
koff (mouse AChR αD97E; [15]): 6070 s⁻¹
α2* (apparent channel closing rate constant) [4]: 471 s⁻¹
β2 (channel opening rate constant) [4]: 80 s⁻¹
α2 (diliganded channel closing rate constant) (mouse AChR αD97M; 0.4 mM choline): 2,255 s^−1
β2 (diliganded channel opening rate constant) (mouse AChR αD97M; 20 mM choline): 835 s⁻¹
L2 (diliganded gating equilibrium constant, β2/α2) (mouse AChR αD97M; choline): 0.370
L2-ratio (mut/wt) (mouse AChR αD97M; choline): 7.78
ΔΔG0 for channel gating, 0.59 ln(L2^wt/L2^mut) [5]: 1.96 kcal mol^−1
α2 (diliganded channel closing rate constant) (mouse AChR αD97C; 0.4 mM choline): 2,172 s^−1
β2 (diliganded channel opening rate constant) (mouse AChR αD97C; 20 mM choline): 531 s⁻¹
L2 (diliganded gating equilibrium constant, β2/α2) (mouse AChR αD97C; choline): 0.244
L2-ratio (mut/wt) (mouse AChR αD97C; choline): 5.13
pKd (mouse AChR αD97H [6]; Kd (k−/k+), αD97H, choline, kinetic modeling, Scheme I): 2.55
kon (mouse AChR αD97H [6]; [14]): 1.06e+06 M⁻¹ s⁻¹
koff (mouse AChR αD97H [6]; [15]): 2990 s⁻¹
α2 (diliganded channel closing rate constant) (mouse AChR αD97Q; 0.4 mM choline): 2,016 s^−1
β2 (diliganded channel opening rate constant) (mouse AChR αD97Q; 20 mM choline): 6,006 s^−1
L2 (diliganded gating equilibrium constant, β2/α2) (mouse AChR αD97Q; choline): 2.979
L2-ratio (mut/wt) (mouse AChR αD97Q; choline): 62.56
α2* (apparent channel closing rate constant) [7]: 762 s⁻¹
β2 (channel opening rate constant) [7]: 85 s⁻¹
ΔΔG0 for channel gating, 0.59 ln(L2^wt/L2^mut) [8]: 0.95 kcal mol^−1
α2 (diliganded channel closing rate constant) ([9]; 0.4 mM choline): 2,100 s^−1
β2 (diliganded channel opening rate constant) ([9]; 20 mM choline): 100 s⁻¹
β2 (channel opening rate constant) ([9]; 20 mM choline (Table VIII)): 100 s⁻¹
α2* (apparent channel closing rate constant) ([9]; 20 mM choline, ∼2-fold smaller than α2 because of channel block): 1,100 s^−1
L2 (diliganded gating equilibrium constant, β2/α2) ([9]; choline): 0.048
β2 ([9]; choline (Table III / Fig. 4)): 100 s⁻¹
L2 [9]: 0.05
L2 ([9]; listed as Choline): 0.047
α2 ([9]; choline (Table III)): 2,100 s^−1
α2 (diliganded channel closing rate constant) (mouse AChR αD97P; αD97P kinetic mode P1): 2,276 s^−1
β2 (diliganded channel opening rate constant) (mouse AChR αD97P; αD97P kinetic mode P1): 322 s⁻¹
L2 (diliganded gating equilibrium constant, β2/α2) (mouse AChR αD97P; αD97P kinetic mode P1): 0.141
L2-ratio (mut/wt) (mouse AChR αD97P; αD97P kinetic mode P1): 2.97
α2 (diliganded channel closing rate constant) (mouse AChR αD97P; αD97P kinetic mode P2): 2,276 s^−1
β2 (diliganded channel opening rate constant) (mouse AChR αD97P; αD97P kinetic mode P2): 1,396 s^−1
L2 (diliganded gating equilibrium constant, β2/α2) (mouse AChR αD97P; αD97P kinetic mode P2): 0.613
L2-ratio (mut/wt) (mouse AChR αD97P; αD97P kinetic mode P2): 12.88
α2 (diliganded channel closing rate constant) (mouse AChR αD97Y; 0.4 mM choline): 1,992 s^−1
β2 (diliganded channel opening rate constant) (mouse AChR αD97Y; 20 mM choline): 1,396 s^−1
L2 (diliganded gating equilibrium constant, β2/α2) (mouse AChR αD97Y; choline): 0.701
L2-ratio (mut/wt) (mouse AChR αD97Y; choline): 14.72
α2* (apparent channel closing rate constant) [10]: 933 s⁻¹
β2 (channel opening rate constant) [10]: 103 s⁻¹
α2* (apparent channel closing rate constant) [11]: 1,320 s^−1
β2 (channel opening rate constant) [11]: 72 s⁻¹
α2* (apparent channel closing rate constant) [12]: 561 s⁻¹
β2 (channel opening rate constant) [12]: 117 s⁻¹
α2 (diliganded channel closing rate constant) (mouse AChR αD97L; 0.4 mM choline): 2,684 s^−1
β2 (diliganded channel opening rate constant) (mouse AChR αD97L; 20 mM choline): 91 s⁻¹
L2 (diliganded gating equilibrium constant, β2/α2) (mouse AChR αD97L; choline): 0.034
L2-ratio (mut/wt) (mouse AChR αD97L; choline): 0.71
